Species: Rattus norvegicus
Assay: Open TG-GATES - Regimen: Daily Repeat
Assay type: toxicity, organism-based, Sprague-Dawley
Parameters: regimen Daily Repeat, gender Male, age 6 weeks
Conditions: in vivo, po, route gavage; for APTT / Bas / Eos / Fbg / Hb / Ht / Lym / MCH / MCHC / MCV / Mono / Neu / PT / Plat / RBC / Ret / WBC: tissue Blood; for KIDNEY_L / KIDNEY_R / KIDNEY_TOTAL: tissue Kidney; for LIVER: tissue Liver; for A/G / ALP / ALT / AST / BUN / CRE / Ca / Cl / DBIL / GLC / IP / K / LDH / Na / PL / RALB / TBIL / TC / TG / TP / gamma-GTP: tissue Plasma
[1] = 100 mg/kg, 72 h, dose level Middle, time 3 day
[2] = 100 mg/kg, […], dose level Middle, time 7 day
[3] = 100 mg/kg, […], dose level Middle, time 14 day
[4] = 100 mg/kg, […], dose level Middle, time 28 day
[5] = 300 mg/kg, 72 h, dose level High, time 3 day
[6] = 300 mg/kg, […], dose level High, time 7 day
[7] = 300 mg/kg, […], dose level High, time 14 day
[8] = 300 mg/kg, […], dose level High, time 28 day

## O=C(O)COc1nn(Cc2ccccc2)c2ccccc12 [BENDAZAC]
[1]
  TERMINAL_BW: 231.3 g
  APTT: 17.2 s
  Bas: 0%
  Eos: 1%
  Fbg: 205 mg/dL
  Hb: 13.5 g/dL
  Ht: 40.4%
  Lym: 80.6%
  MCH: 21.6 pg
  MCHC: 33.4%
  MCV: 64.8 fL
  Mono: 6.8%
  Neu: 11.8%
  PT: 11.8 s
  Plat: 116.4 x10_4/uL
  RBC: 624.4 x10_4/ul
  Ret: 7.1%
  WBC: 112.6 x10_2/uL
  KIDNEY_L: 1 g
  KIDNEY_R: 1.1 g
  KIDNEY_TOTAL: 2.1 g
  LIVER: 11.7 g
  A/G: 2
  ALP: 987.2 IU/L
  ALT: 39.8 IU/L
  AST: 65.6 IU/L
  BUN: 15.8 mg/dL
  CRE: 0.6 mg/dL
  Ca: 10.8 mg/dL
  Cl: 104.2 meq/L
  DBIL: 0.048 mg/dL
  GLC: 199.8 mg/dL
  IP: 7 mg/dL
  K: 4.5 meq/L
  LDH: 107.6 IU/L
  Na: 140 meq/L
  PL: 153.6 mg/dL
  RALB: 3.8 g/dL
  TBIL: 0.4 mg/dL
  TC: 82 mg/dL
  TG: 79.8 mg/dL
  TP: 5.7 g/dL
  gamma-GTP: 1 IU/L
[2]
  TERMINAL_BW: 259.9 g
  APTT: 17.3 s
  Bas: 0%
  Eos: 1.2%
  Fbg: 229.2 mg/dL
  Hb: 14.1 g/dL
  Ht: 41%
  Lym: 76.8%
  MCH: 21.7 pg
  MCHC: 34.3%
  MCV: 63.2 fL
  Mono: 8.4%
  Neu: 14%
  PT: 11.7 s
  Plat: 139.2 x10_4/uL
  RBC: 649.8 x10_4/ul
  Ret: 6.8%
  WBC: 114.5 x10_2/uL
  KIDNEY_L: 1.2 g
  KIDNEY_R: 1.1 g
  KIDNEY_TOTAL: 2.3 g
  LIVER: 13.1 g
  A/G: 2
  ALP: 927.8 IU/L
  ALT: 31.6 IU/L
  AST: 55.8 IU/L
  BUN: 18.8 mg/dL
  CRE: 0.5 mg/dL
  Ca: 11.1 mg/dL
  Cl: 105.6 meq/L
  DBIL: 0.014 mg/dL
  GLC: 206 mg/dL
  IP: 6.6 mg/dL
  K: 4.4 meq/L
  LDH: 110.8 IU/L
  Na: 140.6 meq/L
  PL: 141 mg/dL
  RALB: 3.8 g/dL
  TBIL: 0.4 mg/dL
  TC: 71.8 mg/dL
  TG: 108.6 mg/dL
  TP: 5.7 g/dL
  gamma-GTP: 1 IU/L
[3]
  TERMINAL_BW: 309.7 g
  APTT: 17.7 s
  Bas: 0%
  Eos: 1%
  Fbg: 213.4 mg/dL
  Hb: 14.6 g/dL
  Ht: 43.2%
  Lym: 83.2%
  MCH: 20.5 pg
  MCHC: 33.9%
  MCV: 60.4 fL
  Mono: 4.8%
  Neu: 11.4%
  PT: 11.4 s
  Plat: 126.3 x10_4/uL
  RBC: 715 x10_4/ul
  Ret: 2.9%
  WBC: 124.2 x10_2/uL
  KIDNEY_L: 1.2 g
  KIDNEY_R: 1.3 g
  KIDNEY_TOTAL: 2.5 g
  LIVER: 14.8 g
  A/G: 1.6
  ALP: 909.2 IU/L
  ALT: 32.2 IU/L
  AST: 63 IU/L
  BUN: 18.8 mg/dL
  CRE: 0.6 mg/dL
  Ca: 10.3 mg/dL
  Cl: 106 meq/L
  DBIL: 0.04 mg/dL
  GLC: 198.6 mg/dL
  IP: 6.5 mg/dL
  K: 4.5 meq/L
  LDH: 108 IU/L
  Na: 140.8 meq/L
  PL: 145.6 mg/dL
  RALB: 3.8 g/dL
  TBIL: 0.4 mg/dL
  TC: 68 mg/dL
  TG: 125.4 mg/dL
  TP: 6.2 g/dL
  gamma-GTP: 1.8 IU/L
[4]
  TERMINAL_BW: 386.1 g
  APTT: 18.1 s
  Bas: 0%
  Eos: 1.2%
  Fbg: 216.6 mg/dL
  Hb: 15.6 g/dL
  Ht: 45.8%
  Lym: 87%
  MCH: 19.5 pg
  MCHC: 34%
  MCV: 57.2 fL
  Mono: 2.2%
  Neu: 9%
  PT: 12 s
  Plat: 113.7 x10_4/uL
  RBC: 801.2 x10_4/ul
  Ret: 2.2%
  WBC: 131.2 x10_2/uL
  KIDNEY_L: 1.4 g
  KIDNEY_R: 1.4 g
  KIDNEY_TOTAL: 2.8 g
  LIVER: 17.3 g
  A/G: 1.4
  ALP: 669.2 IU/L
  ALT: 31.4 IU/L
  AST: 62.4 IU/L
  BUN: 20 mg/dL
  CRE: 0.6 mg/dL
  Ca: 9.7 mg/dL
  Cl: 103.8 meq/L
  DBIL: 0.02 mg/dL
  GLC: 189.2 mg/dL
  IP: 5.7 mg/dL
  K: 4.4 meq/L
  LDH: 102.8 IU/L
  Na: 139.6 meq/L
  PL: 136.8 mg/dL
  RALB: 3.7 g/dL
  TBIL: 0.4 mg/dL
  TC: 61.4 mg/dL
  TG: 154.4 mg/dL
  TP: 6.2 g/dL
  gamma-GTP: 1.2 IU/L
[5]
  TERMINAL_BW: 223.3 g
  APTT: 19 s
  Bas: 0%
  Eos: 0.8%
  Fbg: 218 mg/dL
  Hb: 14.2 g/dL
  Ht: 42%
  Lym: 75.2%
  MCH: 21.6 pg
  MCHC: 33.7%
  MCV: 64.2 fL
  Mono: 9.2%
  Neu: 14.4%
  PT: 12.3 s
  Plat: 133.3 x10_4/uL
  RBC: 655.2 x10_4/ul
  Ret: 6.2%
  WBC: 109.6 x10_2/uL
  KIDNEY_L: 1 g
  KIDNEY_R: 1.1 g
  KIDNEY_TOTAL: 2.1 g
  LIVER: 13.4 g
  A/G: 2.3
  ALP: 1088.6 IU/L
  ALT: 44.4 IU/L
  AST: 75.8 IU/L
  BUN: 17.4 mg/dL
  CRE: 0.6 mg/dL
  Ca: 10.8 mg/dL
  Cl: 103.6 meq/L
  DBIL: 0.076 mg/dL
  GLC: 192.6 mg/dL
  IP: 5.8 mg/dL
  K: 4.4 meq/L
  LDH: 141.8 IU/L
  Na: 140.4 meq/L
  PL: 131 mg/dL
  RALB: 3.8 g/dL
  TBIL: 0.8 mg/dL
  TC: 66.2 mg/dL
  TG: 68.8 mg/dL
  TP: 5.5 g/dL
  gamma-GTP: 1.2 IU/L
[6]
  TERMINAL_BW: 261 g
  APTT: 20.2 s
  Bas: 0%
  Eos: 0.8%
  Fbg: 207.6 mg/dL
  Hb: 13.8 g/dL
  Ht: 40.6%
  Lym: 83%
  MCH: 21.5 pg
  MCHC: 34%
  MCV: 63.3 fL
  Mono: 5.2%
  Neu: 11.4%
  PT: 12.6 s
  Plat: 132.2 x10_4/uL
  RBC: 641.6 x10_4/ul
  Ret: 6.1%
  WBC: 123 x10_2/uL
  KIDNEY_L: 1.2 g
  KIDNEY_R: 1.2 g
  KIDNEY_TOTAL: 2.3 g
  LIVER: 14.9 g
  A/G: 2
  ALP: 1331.4 IU/L
  ALT: 37 IU/L
  AST: 67.6 IU/L
  BUN: 19.6 mg/dL
  CRE: 0.5 mg/dL
  Ca: 11.1 mg/dL
  Cl: 105 meq/L
  DBIL: 0.022 mg/dL
  GLC: 196.8 mg/dL
  IP: 5.8 mg/dL
  K: 4.4 meq/L
  LDH: 115.8 IU/L
  Na: 141 meq/L
  PL: 121 mg/dL
  RALB: 3.8 g/dL
  TBIL: 0.8 mg/dL
  TC: 63.6 mg/dL
  TG: 55.2 mg/dL
  TP: 5.7 g/dL
  gamma-GTP: 1 IU/L
[7]
  TERMINAL_BW: 307.2 g
  APTT: 18.9 s
  Bas: 0%
  Eos: 0.6%
  Fbg: 213.6 mg/dL
  Hb: 14.7 g/dL
  Ht: 43%
  Lym: 83%
  MCH: 20.9 pg
  MCHC: 34%
  MCV: 61.3 fL
  Mono: 5.6%
  Neu: 10.8%
  PT: 11.7 s
  Plat: 128.4 x10_4/uL
  RBC: 702.2 x10_4/ul
  Ret: 3%
  WBC: 117.7 x10_2/uL
  KIDNEY_L: 1.2 g
  KIDNEY_R: 1.2 g
  KIDNEY_TOTAL: 2.5 g
  LIVER: 17 g
  A/G: 1.9
  ALP: 903.6 IU/L
  ALT: 36.6 IU/L
  AST: 60.8 IU/L
  BUN: 20.4 mg/dL
  CRE: 0.5 mg/dL
  Ca: 10.3 mg/dL
  Cl: 105.2 meq/L
  DBIL: 0.024 mg/dL
  GLC: 185.6 mg/dL
  IP: 5.3 mg/dL
  K: 4.2 meq/L
  LDH: 105.6 IU/L
  Na: 140.8 meq/L
  PL: 130.2 mg/dL
  RALB: 3.9 g/dL
  TBIL: 0.7 mg/dL
  TC: 62.4 mg/dL
  TG: 79.4 mg/dL
  TP: 6.1 g/dL
  gamma-GTP: 1.4 IU/L
[8]
  TERMINAL_BW: 410 g
  APTT: 21 s
  Bas: 0%
  Eos: 1%
  Fbg: 216.5 mg/dL
  Hb: 14.8 g/dL
  Ht: 43.9%
  Lym: 83.2%
  MCH: 19.5 pg
  MCHC: 33.8%
  MCV: 57.8 fL
  Mono: 5.5%
  Neu: 10.8%
  PT: 13.5 s
  Plat: 114.5 x10_4/uL
  RBC: 760.5 x10_4/ul
  Ret: 3.2%
  WBC: 142.5 x10_2/uL
  KIDNEY_L: 1.6 g
  KIDNEY_R: 1.6 g
  KIDNEY_TOTAL: 3.2 g
  LIVER: 21.1 g
  A/G: 1.6
  ALP: 768 IU/L
  ALT: 34 IU/L
  AST: 57 IU/L
  BUN: 20.2 mg/dL
  CRE: 0.6 mg/dL
  Ca: 9.9 mg/dL
  Cl: 103 meq/L
  DBIL: 0.0525 mg/dL
  GLC: 187 mg/dL
  IP: 5 mg/dL
  K: 4 meq/L
  LDH: 72 IU/L
  Na: 140 meq/L
  PL: 117 mg/dL
  RALB: 3.7 g/dL
  TBIL: 0.9 mg/dL
  TC: 54.8 mg/dL
  TG: 57.8 mg/dL
  TP: 6.2 g/dL
  gamma-GTP: 1.5 IU/L

Reference: ChEMBL document CHEMBL3885861, “Open TG-GATES”
